Reference: patent publication US20240279202A1 (NURIX THERAPEUTICS, INC., priority 2021, published 2024)

Target: T1, ITK (Homo sapiens, UniProt Q08881)
T1 sequence (Q08881 1-620): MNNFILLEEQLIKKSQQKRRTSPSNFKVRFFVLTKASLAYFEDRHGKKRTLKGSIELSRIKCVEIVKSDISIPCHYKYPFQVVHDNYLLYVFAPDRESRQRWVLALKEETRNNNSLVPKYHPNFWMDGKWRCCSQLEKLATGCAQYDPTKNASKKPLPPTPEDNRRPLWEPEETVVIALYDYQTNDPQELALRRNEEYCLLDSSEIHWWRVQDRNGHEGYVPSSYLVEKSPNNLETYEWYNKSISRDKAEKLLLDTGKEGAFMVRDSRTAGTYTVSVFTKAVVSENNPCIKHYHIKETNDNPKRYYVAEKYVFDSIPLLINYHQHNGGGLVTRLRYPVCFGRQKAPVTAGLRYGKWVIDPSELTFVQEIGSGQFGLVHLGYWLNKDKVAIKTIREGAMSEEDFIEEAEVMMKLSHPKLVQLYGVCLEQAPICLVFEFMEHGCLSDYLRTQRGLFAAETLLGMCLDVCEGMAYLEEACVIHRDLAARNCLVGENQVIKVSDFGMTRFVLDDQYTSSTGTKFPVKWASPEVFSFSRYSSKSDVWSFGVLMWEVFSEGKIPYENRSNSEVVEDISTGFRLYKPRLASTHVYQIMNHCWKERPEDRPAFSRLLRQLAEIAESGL
Experiment: ITK degradation HiBiT assay
Assay type: cell-based
Parameters: expressed in transfected cells; host or cells: Molt4 (ATCC CRL-1552), monoclonal clone 1C10, engineered to carry the HiBiT tag
Conditions: 4 hrs; for DC50: C-terminal HiBiT-tagged Molt4 cells; for Dmax: MOLT-4, C-terminal HiBiT-tagged Molt4 cells
Method: Itk Degradation Hibit Assay
Compounds provided herein were assayed in vitro with ITK HiBit cell lines. Compound dilution series (11-point, 5 fold dilutions in DMSO, columns 2-12 with replicate in rows A/B, C/D, E/F, G,H at 2000× the final required concentrations were prepared in 96 well plates (Falcon, cat. no. 353077). Column 1, rows A-H were control DMSO. The 2000× solutions ranged from 2 mM to 1.024 nM (final assay concentration range 1 μM to […]). The 2000× solutions were added to cells in […], for a final DMSO concentration of 0.5% and final assay compound concentration of 1×. For the cells, C-terminal HiBiT-tagged Molt4 cells (ATCC CRL-1552, monoclonal cell line clone 1C10) were plated at 1×10^6 cells/mL, 100 μL/well ([…]) in complete RPMI (10% FBS, 1% L-glutamine). The cells were incubated with compound 10 and compound 17 for 4 hrs at […]/6% CO2.
Following incubation, 100 μL of complete Nano-Glo HiBiT Lytic Detection Reagent (Nano-Glo HiBiT Lytic Buffer with 1:50 Nano-Glo HiBiT Lytic Substrate and 1:100 LgBiT Protein; Promega cat. no. N3040) was added. Cells were further incubated for 10 min at room temperature (RT). Luminescence units (LU) were read on an EnVision plate reader (Perkin Elmer, 0.1 sec per well). Percent ITK remaining per sample was calculated as follows: […]
Using Graphpad Prism, % ITK remaining values were plotted as a function of compound concentration. To determine DC50 and Dmax values, resulting curves were fit to the Prism curve-fitting equation “log(inhibitor) vs response—Variable slope (four parameters)” (reported best fit value IC50 used as DC50). ITK was measured with antibody-based MSD (Meso-Scale Discovery) assays shown below.

SMILES | DC50 [nM] | Dmax [%]
Cn1c(=O)n(C2CCC(=O)NC2=O)c2cccc(N3CCC(CN4CC(n5cc(NC(=O)c6n[nH]c7c6C[C@@H]6C(F)(F)[C@]6(C)C7)cn5)C4)CC3)c21 (stereo partly drawn) [Compound 57, (4aS,5aR)-N-(1-(1-((1-(1-(2,6-dioxopiperidin-3-yl)-3-methyl-2-oxo-2,3-dihydro-1H-benzo[d]imidazol-4-yl)piperidin-4-yl)methyl)azetidin-3-yl)-1H-pyrazol-4-yl)-5,5-difluoro-5a-methyl-1,4,4a,5,5a,6-hexahydrocyclopropa[f]indazole-3-carboxamide] | < 0.01 | 90
CC1(C)CCc2c(-c3cc4ccc(C(=O)N5CCC(CN6CCN(c7ccc(C8CCC(=O)NC8=O)cn7)CC6)CC5)cc4[nH]3)n[nH]c2C1 (centres unmarked) [Compound 59, 3-(6-(4-((1-(2-(6,6-dimethyl-4,5,6,7-tetrahydro-1H-indazol-3-yl)-1H-indole-6-carbonyl)piperidin-4-yl)methyl)piperazin-1-yl)pyridin-3-yl)piperidine-2,6-dione] | 0.05 | 81
CN(c1ccc(C2CCC(=O)NC2=O)cn1)C1CCN(CC2CCN(C(=O)c3ccc4cc(-c5n[nH]c6c5CCC(C)(C)C6)[nH]c4c3)CC2)CC1 (centres unmarked) [Compound 62, 3-(6-((1-((1-(2-(6,6-dimethyl-4,5,6,7-tetrahydro-1H-indazol-3-yl)-1H-indole-6-carbonyl)piperidin-4-yl)methyl)piperidin-4-yl)(methyl)amino)pyridin-3-yl)piperidine-2,6-dione] | 0.002 | 72
CN(CC1CCN(C(=O)c2ccc3cc(-c4n[nH]c5c4CCC(C)(C)C5)[nH]c3c2)CC1)C1CCN(c2ccc(C3CCC(=O)NC3=O)cn2)CC1 (centres unmarked) [Compound 63, 3-(6-(4-(((1-(2-(6,6-dimethyl-4,5,6,7-tetrahydro-1H-indazol-3-yl)-1H-indole-6-carbonyl)piperidin-4-yl)methyl)(methyl)amino)piperidin-1-yl)pyridin-3-yl)piperidine-2,6-dione] | 0.003 | 80
CN(C(=O)CCC1CCN(c2ccc(C3CCC(=O)NC3=O)cn2)C1)c1ccc2cc(-c3n[nH]c4c3C[C@@H]3C(F)(F)[C@]3(C)C4)[nH]c2c1 (stereo partly drawn) [Compound 70, N-(2-((4aS,5aR)-5,5-difluoro-5a-methyl-1,4,4a,5,5a,6-hexahydrocyclopropa[f]indazol-3-yl)-1H-indol-6-yl)-3-(1-(5-(2,6-dioxopiperidin-3-yl)pyridin-2-yl)pyrrolidin-3-yl)-N-methylpropanamide] |  | 53

The remaining lines, values ahead:

DC50 [nM] | Dmax [%] | SMILES
5.2 | 70 | CN(C(=O)CN1CC2(CCN(c3ccc4c(c3)C(=O)N(C3CCC(=O)NC3=O)C4=O)C2)C1)c1ccc2cc(-c3n[nH]c4c3C[C@@H]3C(F)(F)[C@]3(C)C4)[nH]c2c1 (some centres unmarked) [Compound 71]
10.5 |  | CN(C(=O)C1CCN(CC2CCN(c3ccc(C4CCC(=O)NC4=O)cn3)CC2)CC1)c1ccc2cc(-c3n[nH]c4c3C[C@@H]3C(F)(F)[C@]3(C)C4)[nH]c2c1 (stereo partly drawn) [Compound 74, N-(2-((4aS,5aR)-5,5-difluoro-5a-methyl-1,4,4a,5,5a,6-hexahydrocyclopropa[f]indazol-3-yl)-1H-indol-6-yl)-1-((1-(5-(2,6-dioxopiperidin-3-yl)pyridin-2-yl)piperidin-4-yl)methyl)-N-methylpiperidine-4-carboxamide]
0.24 | 85 | C[C@@]12Cc3[nH]nc(C(=O)Nc4cnn(C5CN(CC6CCN(c7ccc(C8CCC(=O)NC8=O)cc7)CC6)C5)c4)c3C[C@@H]1C2(F)F (stereo partly drawn) [Compound 91, (4aS,5aR)-N-(1-(1-((1-(4-(2,6-dioxopiperidin-3-yl)phenyl)piperidin-4-yl)methyl)azetidin-3-yl)-1H-pyrazol-4-yl)-5,5-difluoro-5a-methyl-1,4,4a,5,5a,6-hexahydrocyclopropa[f]indazole-3-carboxamide]
